Measured values: ChEMBL document CHEMBL1143001, “Designing active template molecules by combining computational de novo design and human chemist's expertise” (J Med Chem, 2007)
The source made the active and inactive calls. No cut-off for these calls is given here.

Experiments:
Bos taurus [1] = species on record: Bos taurus; test: Inhibition of bovine PDE1 at 10 uM
Rattus norvegicus [2] = species on record: Rattus norvegicus; test: Displacement of radiolabeled kainic acid from rat cerebral cortex Kainate receptor at 10 uM; assay type: tissue-based
[3] = target: cGMP-dependent 3',5'-cyclic phosphodiesterase (Homo sapiens) (UniProt O00408); test: Inhibition of PDE2 expressed in differentiated U937 cells at 10 uM; assay type: cell-based; conditions: U-937
Chain of cGMP-dependent 3',5'-cyclic phosphodiesterase (Homo sapiens) (O00408 whole entry): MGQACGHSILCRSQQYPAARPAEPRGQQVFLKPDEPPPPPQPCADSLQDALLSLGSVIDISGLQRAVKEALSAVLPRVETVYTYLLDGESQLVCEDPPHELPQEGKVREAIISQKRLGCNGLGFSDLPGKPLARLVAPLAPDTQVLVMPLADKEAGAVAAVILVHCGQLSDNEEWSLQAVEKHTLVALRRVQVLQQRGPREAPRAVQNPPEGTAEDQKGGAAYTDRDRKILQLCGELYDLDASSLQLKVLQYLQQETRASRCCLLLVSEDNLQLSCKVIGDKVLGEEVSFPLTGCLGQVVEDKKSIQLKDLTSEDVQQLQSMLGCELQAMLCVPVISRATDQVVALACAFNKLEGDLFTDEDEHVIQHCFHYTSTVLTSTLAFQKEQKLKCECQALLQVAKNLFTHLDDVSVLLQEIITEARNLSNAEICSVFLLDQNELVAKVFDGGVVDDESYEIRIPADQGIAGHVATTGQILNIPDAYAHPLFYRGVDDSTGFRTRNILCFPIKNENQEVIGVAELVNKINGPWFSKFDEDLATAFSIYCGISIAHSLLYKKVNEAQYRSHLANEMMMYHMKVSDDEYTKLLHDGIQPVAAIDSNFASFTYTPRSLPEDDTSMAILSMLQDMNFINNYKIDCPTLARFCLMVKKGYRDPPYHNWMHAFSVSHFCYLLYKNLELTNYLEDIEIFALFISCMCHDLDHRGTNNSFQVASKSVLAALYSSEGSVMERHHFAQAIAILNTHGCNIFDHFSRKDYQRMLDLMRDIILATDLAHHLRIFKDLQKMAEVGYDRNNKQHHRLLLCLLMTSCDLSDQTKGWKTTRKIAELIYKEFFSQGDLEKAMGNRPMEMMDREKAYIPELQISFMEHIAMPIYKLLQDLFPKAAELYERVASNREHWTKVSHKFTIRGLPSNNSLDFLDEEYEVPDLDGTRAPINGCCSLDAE

[4] = target: Muscarinic acetylcholine receptor M2 (Rattus norvegicus) (UniProt P10980); test: Displacement of radiolabeled atropine from rat brain muscarinic M2 receptor at 10 uM
[5] = target: T1, Amine oxidase [flavin-containing] B (Homo sapiens, UniProt P27338); test: Inhibition of MAOB in human platelets at 10 uM
T1 sequence (P27338 whole entry): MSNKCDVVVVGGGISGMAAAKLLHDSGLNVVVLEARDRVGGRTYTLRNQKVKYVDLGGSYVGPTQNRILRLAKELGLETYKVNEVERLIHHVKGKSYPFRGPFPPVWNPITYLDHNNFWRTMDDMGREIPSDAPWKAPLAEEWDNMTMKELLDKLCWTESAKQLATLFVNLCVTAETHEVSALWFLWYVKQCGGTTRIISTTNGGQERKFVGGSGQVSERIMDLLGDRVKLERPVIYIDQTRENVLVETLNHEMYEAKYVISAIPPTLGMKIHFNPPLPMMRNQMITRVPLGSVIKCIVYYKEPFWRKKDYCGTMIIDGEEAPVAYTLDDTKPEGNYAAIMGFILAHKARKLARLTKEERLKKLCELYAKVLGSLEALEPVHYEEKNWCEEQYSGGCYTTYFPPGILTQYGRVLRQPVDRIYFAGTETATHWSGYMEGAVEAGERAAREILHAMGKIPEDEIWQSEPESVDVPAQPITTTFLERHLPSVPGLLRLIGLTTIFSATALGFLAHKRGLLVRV

[6] = target: Sodium-dependent dopamine transporter (Homo sapiens) (UniProt Q01959); test: Displacement of radiolabeled BTCP from human recombinant DAT expressed in CHO cells at 10 uM; assay type: cell-based
Chain of Sodium-dependent dopamine transporter (Homo sapiens) (Q01959 whole entry): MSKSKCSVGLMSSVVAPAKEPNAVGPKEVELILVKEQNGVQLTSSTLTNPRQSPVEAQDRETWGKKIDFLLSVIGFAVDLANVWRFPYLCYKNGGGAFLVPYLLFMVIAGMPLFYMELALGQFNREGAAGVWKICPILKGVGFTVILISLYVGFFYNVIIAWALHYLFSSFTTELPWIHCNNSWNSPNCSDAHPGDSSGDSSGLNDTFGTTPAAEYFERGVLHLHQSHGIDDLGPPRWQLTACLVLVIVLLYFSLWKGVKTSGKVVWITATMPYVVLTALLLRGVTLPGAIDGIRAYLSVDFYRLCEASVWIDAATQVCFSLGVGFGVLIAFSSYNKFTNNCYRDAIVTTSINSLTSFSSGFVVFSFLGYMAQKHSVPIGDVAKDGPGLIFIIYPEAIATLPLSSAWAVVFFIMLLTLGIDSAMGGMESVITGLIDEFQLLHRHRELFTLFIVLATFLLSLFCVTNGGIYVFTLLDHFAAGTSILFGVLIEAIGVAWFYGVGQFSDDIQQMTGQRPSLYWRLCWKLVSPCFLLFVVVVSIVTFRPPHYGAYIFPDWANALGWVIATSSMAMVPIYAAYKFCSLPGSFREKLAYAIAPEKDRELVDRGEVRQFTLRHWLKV

[7] = target: cGMP-specific 3',5'-cyclic phosphodiesterase (Homo sapiens) (UniProt O76074); test: Inhibition of PDE5 in human platelet cells at 10 uM; assay type: cell-based
[8] = target: Cannabinoid receptor 1 (Homo sapiens) (UniProt P21554); test: Displacement of radiolabeled WIN-55212-2 from human CB1 receptor expressed in HEK293 cells at 10 uM; assay type: cell-based
[9] = target: Phosphodiesterase 3 (Homo sapiens) (UniProt Q14432+Q13370); test: Inhibition of PDE3 expressed in human platelets at 10 uM
[10] = target: Substance-P receptor (Homo sapiens) (UniProt P25103); test: Displacement of radiolabeled [Sar9,Met(O2)11]-SP from NK1 receptor expressed in U373MG cells at 10 uM; assay type: cell-based; conditions: U-373MG ATCC
[11] = target: 4-aminobutyrate aminotransferase, mitochondrial (Rattus norvegicus) (UniProt P50554); test: Inhibition of rat brain GABA transaminase at 10 uM
Chain of 4-aminobutyrate aminotransferase, mitochondrial (Rattus norvegicus) (P50554 28-500 limits assumed): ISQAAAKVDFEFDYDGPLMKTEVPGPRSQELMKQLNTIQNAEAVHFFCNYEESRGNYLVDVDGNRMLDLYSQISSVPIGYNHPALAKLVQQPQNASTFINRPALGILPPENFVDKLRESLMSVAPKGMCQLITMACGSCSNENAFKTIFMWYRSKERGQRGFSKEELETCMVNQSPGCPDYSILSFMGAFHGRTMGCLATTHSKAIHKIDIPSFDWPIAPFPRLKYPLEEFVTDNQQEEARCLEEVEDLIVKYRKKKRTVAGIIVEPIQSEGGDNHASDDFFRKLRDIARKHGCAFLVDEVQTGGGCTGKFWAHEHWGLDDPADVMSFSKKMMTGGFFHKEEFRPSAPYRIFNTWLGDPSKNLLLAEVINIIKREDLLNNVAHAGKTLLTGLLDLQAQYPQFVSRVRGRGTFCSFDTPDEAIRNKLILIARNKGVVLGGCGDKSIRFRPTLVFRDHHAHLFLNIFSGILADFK

Homo sapiens = species on record: Homo sapiens; test: Displacement of radiolabeled ligand from nicotinic acetylcholine receptor at 10 uM
Sus scrofa = species on record: Sus scrofa; test: Inhibition of pig liver catechol-O-methyl transferase at 10 uM
[12] = target: Muscarinic acetylcholine receptor M4 (Rattus norvegicus) (UniProt P08485); test: Displacement of radiolabeled atropine from rat brain muscarinic M4 receptor at 10 uM
Chain of Muscarinic acetylcholine receptor M4 (Rattus norvegicus) (P08485 whole entry): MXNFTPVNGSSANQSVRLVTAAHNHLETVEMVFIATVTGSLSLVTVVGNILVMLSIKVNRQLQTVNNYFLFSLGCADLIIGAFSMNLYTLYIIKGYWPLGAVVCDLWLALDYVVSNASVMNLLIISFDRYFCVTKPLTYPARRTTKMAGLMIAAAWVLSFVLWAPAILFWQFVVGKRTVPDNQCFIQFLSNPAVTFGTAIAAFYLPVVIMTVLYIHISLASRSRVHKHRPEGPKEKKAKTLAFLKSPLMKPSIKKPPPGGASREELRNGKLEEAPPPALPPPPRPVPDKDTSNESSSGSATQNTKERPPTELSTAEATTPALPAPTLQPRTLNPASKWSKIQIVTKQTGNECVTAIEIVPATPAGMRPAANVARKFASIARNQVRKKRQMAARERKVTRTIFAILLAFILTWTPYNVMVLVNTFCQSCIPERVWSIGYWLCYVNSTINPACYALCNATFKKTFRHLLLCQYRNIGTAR

[13] = target: Sodium-dependent serotonin transporter (Homo sapiens) (UniProt P31645); test: Displacement of radiolabeled Imipramine from human recombinant 5HT transporter expressed in HEK293 cells at 10 uM; assay type: cell-based
[14] = target: Adrenergic receptor alpha-1 (Rattus norvegicus) (UniProt P15823+P23944+P43140); test: Displacement of radiolabeled prazosin from adrenergic alpha1 receptor in rat cerebral cortex; assay type: tissue-based
Bos taurus [15] = species on record: Bos taurus; test: Inhibition of bovine lung guanylyl cyclase at 10 uM
Canis lupus familiaris = species on record: Canis lupus familiaris; test: Inhibition of dog kidney (Na+/K+) ATPase at 10 uM
[16] = target: Phosphodiesterase 4 (Homo sapiens) (UniProt P27815+Q08499+Q07343+Q08493); test: Inhibition of PDE4 expressed in U937 cells at 10 uM; assay type: cell-based; conditions: U-937
Rattus norvegicus [17] = species on record: Rattus norvegicus; test: Inhibition of rat brain adenylyl cyclase at 10 uM
Rattus norvegicus [18] = species on record: Rattus norvegicus; test: Displacement of radiolabeled naloxone from opiate receptor in rat cerebral cortex; assay type: tissue-based
[19] = target: Muscarinic acetylcholine receptor M3 (Rattus norvegicus) (UniProt P08483); test: Displacement of radiolabeled atropine from rat brain muscarinic M3 receptor at 10 uM
Chain of Muscarinic acetylcholine receptor M3 (Rattus norvegicus) (P08483 whole entry, looked up): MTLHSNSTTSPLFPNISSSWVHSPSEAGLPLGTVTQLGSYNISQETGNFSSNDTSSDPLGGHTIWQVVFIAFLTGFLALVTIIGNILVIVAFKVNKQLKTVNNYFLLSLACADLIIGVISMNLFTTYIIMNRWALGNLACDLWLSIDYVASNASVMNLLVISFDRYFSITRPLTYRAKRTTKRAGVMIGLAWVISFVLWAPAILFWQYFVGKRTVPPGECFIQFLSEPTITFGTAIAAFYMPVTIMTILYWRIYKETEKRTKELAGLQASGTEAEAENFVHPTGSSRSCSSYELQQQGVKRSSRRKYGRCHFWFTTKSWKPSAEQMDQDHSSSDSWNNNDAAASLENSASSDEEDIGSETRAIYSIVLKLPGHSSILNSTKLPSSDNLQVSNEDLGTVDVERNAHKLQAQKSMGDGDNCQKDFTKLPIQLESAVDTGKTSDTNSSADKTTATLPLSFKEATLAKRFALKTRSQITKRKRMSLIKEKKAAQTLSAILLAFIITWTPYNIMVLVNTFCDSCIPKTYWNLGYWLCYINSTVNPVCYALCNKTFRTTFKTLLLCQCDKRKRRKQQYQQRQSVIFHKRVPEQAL

[20] = target: Acetylcholinesterase (Homo sapiens) (UniProt P22303); test: Inhibition of human recombinant AChE expressed in HEK293 cells at 10 uM; assay type: cell-based
Chain of Acetylcholinesterase (Homo sapiens) (P22303 whole entry): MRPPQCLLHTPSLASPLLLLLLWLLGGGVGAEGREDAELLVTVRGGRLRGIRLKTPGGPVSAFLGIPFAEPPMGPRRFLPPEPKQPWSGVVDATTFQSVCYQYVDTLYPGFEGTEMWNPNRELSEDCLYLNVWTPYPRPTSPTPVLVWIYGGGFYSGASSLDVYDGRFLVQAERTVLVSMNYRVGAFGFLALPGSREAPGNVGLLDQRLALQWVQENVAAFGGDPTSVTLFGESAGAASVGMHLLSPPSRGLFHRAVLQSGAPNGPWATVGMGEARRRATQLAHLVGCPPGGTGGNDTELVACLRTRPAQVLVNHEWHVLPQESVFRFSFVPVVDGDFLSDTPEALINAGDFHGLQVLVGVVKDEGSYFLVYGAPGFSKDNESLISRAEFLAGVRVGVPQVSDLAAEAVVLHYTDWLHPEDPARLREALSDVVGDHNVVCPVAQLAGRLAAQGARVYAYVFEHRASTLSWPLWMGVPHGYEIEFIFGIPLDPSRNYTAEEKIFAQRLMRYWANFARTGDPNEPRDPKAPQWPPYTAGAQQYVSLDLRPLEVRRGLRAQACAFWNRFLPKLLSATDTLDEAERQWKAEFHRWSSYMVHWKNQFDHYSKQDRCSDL

[21] = target: Sodium-dependent noradrenaline transporter (Homo sapiens) (UniProt P23975); test: Displacement of radiolabeled protriptyline from human recombinant NET expressed in CHO cells at 10 uM; assay type: cell-based
Chain of Sodium-dependent noradrenaline transporter (Homo sapiens) (P23975 whole entry): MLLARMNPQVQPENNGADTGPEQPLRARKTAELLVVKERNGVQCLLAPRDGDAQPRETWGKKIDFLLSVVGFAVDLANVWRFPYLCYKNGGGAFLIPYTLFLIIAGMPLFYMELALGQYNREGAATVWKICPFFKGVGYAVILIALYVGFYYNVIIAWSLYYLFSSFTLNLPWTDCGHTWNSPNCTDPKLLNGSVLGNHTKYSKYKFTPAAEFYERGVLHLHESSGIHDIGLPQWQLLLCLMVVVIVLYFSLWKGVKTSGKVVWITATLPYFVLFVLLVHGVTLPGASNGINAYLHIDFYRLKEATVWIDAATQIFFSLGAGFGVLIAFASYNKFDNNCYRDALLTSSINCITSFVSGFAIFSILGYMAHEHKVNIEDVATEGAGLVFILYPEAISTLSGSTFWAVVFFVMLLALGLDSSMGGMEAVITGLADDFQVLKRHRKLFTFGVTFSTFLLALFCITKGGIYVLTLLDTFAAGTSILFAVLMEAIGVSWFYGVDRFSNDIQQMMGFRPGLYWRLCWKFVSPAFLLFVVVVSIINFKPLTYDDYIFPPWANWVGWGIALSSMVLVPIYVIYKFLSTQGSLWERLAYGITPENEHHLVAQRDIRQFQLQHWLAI

[22] = target: T2, Phenylethanolamine N-methyltransferase (Bos taurus) (UniProt P10938); test: Inhibition of bovine adrenal medulla phenylethanolamine-N-methyl transferase at 10 uM; assay type: tissue-based
T2 sequence (whole entry): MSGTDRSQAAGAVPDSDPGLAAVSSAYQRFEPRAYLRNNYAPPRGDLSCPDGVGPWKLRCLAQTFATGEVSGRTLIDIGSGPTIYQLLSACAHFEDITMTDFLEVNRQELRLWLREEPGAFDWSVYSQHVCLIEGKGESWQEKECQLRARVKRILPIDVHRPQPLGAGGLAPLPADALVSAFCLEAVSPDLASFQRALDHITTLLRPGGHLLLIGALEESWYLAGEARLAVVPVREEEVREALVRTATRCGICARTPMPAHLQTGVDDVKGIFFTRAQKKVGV

[23] = target: Muscarinic acetylcholine receptor M1 (Rattus norvegicus) (UniProt P08482); test: Displacement of radiolabeled atropine from rat brain muscarinic M1 receptor at 10 uM
Rattus norvegicus [24] = species on record: Rattus norvegicus; test: Inhibition of rat striatum tyrosine hydroxylase at 10 uM; assay type: tissue-based
[25] = tested on: Protein kinase C (Rattus norvegicus); test: Inhibition of rat brain PKC at 10 uM
[26] = target: Serotonin (5-HT) receptor (Rattus norvegicus) (UniProt P35563+P35365+P32305+P31388+Q9JJ16+P28564+P30994+Q62758+P08909+P14842+P30940+P35364+P19327+P28565); test: Displacement of radiolabeled serotonin from 5-HT receptor in rat cerebral cortex; assay type: tissue-based
[27] = target: Muscarinic acetylcholine receptor M5 (Rattus norvegicus) (UniProt P08911); test: Displacement of radiolabeled atropine from rat brain muscarinic M5 receptor at 10 uM
Chain of Muscarinic acetylcholine receptor M5 (Rattus norvegicus) (P08911 whole entry): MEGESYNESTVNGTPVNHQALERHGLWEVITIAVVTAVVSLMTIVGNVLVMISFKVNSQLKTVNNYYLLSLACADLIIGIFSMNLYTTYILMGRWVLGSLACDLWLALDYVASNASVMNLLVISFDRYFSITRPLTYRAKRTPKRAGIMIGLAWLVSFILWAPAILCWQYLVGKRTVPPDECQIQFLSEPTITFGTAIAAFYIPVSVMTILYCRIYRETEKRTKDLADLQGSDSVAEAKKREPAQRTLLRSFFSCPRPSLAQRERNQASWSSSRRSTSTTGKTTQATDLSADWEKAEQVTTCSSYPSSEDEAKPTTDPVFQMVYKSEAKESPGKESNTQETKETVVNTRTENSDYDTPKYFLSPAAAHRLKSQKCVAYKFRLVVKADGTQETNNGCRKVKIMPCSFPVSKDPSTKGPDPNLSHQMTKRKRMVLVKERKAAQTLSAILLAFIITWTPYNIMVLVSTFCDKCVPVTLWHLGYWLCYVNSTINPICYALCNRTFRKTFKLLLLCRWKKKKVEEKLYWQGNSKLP

[28] = target: Adrenergic receptor alpha-2 (Rattus norvegicus) (UniProt P22086+P19328+P22909); test: Displacement of radiolabeled yohimbine from adrenergic alpha-2 receptor in rat cerebral cortex; assay type: tissue-based

O=C(O)c1ccccc1C1CCCNC1 (stereo unspecified)
Activity (Bos taurus [1]): inactive | Activity (Rattus norvegicus [2]): inactive | Activity [3]: inactive | Activity [4]: inactive | Activity [5]: Not Active | Activity [6]: inactive | Activity [7]: inactive | Activity [8]: inactive | Activity [9]: inactive | Activity [10]: inactive | Activity [11]: inactive | Activity (Homo sapiens): inactive | Activity (Sus scrofa): inactive | Activity [12]: inactive | Activity [13]: inactive | Activity [14]: inactive | Activity (Bos taurus [15]): inactive | Activity (Canis lupus familiaris): inactive | Activity [16]: inactive | Activity (Rattus norvegicus [17]): inactive | Activity (Rattus norvegicus [18]): inactive | Activity [19]: inactive | Activity [20]: inactive | Activity [21]: inactive | Activity [22]: inactive | Activity [23]: inactive | Activity (Rattus norvegicus [24]): inactive | Activity [25]: inactive | Activity [26]: inactive | Activity [27]: inactive | Activity [28]: inactive
